According to publication PMC5699498 (Protein Science : A Publication of the Protein Society, 2017):

Molecular target: Lpg2936 (Legionella pneumophila, UniProt Q5ZRE6)
Test: biochemical

Chain of Lpg2936 (Q5ZRE6 1-244 limits assumed): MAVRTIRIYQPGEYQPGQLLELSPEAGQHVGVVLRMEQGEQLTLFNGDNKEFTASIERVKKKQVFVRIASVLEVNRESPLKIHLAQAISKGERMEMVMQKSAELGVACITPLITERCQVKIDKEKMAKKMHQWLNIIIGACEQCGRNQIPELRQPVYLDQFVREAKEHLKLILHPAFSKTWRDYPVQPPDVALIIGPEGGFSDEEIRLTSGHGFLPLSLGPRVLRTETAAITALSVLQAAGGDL

Work on `C[S+](CC[C@H](N)C(=O)O)C[C@H]1O[C@@H](n2cnc3c(N)ncnc32)[C@H](O)[C@@H]1O` (stereo partly shown) [S‐adenosyl‐L‐methionine] yielded a Kd of 0.012 µM.
